Assay results as given in PubChem BioAssay AID1259408 (Genetic Toxicology Data Bank (GENE-TOX), 2018).
Active and inactive are the calls of the source. The rule behind the calls is not given here.

Test system: GENE-TOX genotoxicity assays, various organisms and cells
Assay: GENE-TOX mutagenicity studies
Conditions: for call: Assay Type: In vivo carcinogenicity studies
[1] = Species/Cell Type: Escherichia coli polA (W3110 vs P3478), Assay Type: Rec-assay, DNA effects (bacterial DNA repair), Assay Code: RE2+, Evaluation Type: Evaluation A (Pre-1980)
[2] = Species/Cell Type: Escherichia coli polA (W3119 vs P3478), Assay Type: Rec-assay, DNA effects (bacterial DNA repair), Assay Code: RE1T, Evaluation Type: Evaluation A (Pre-1980)
[3] = Species/Cell Type: Nonhuman, Assay Code: CCG+, Evaluation Type: Evaluation A (Pre-1980)
[4] = Species/Cell Type: Nonhuman, Assay Type: Sister-chromatid exchange (SCE) in vitro, Assay Code: SC2+D, Dose Response: With dose response, Evaluation Type: Evaluation B (Post-1980)
[5] = Species/Cell Type: Salmonella typhimurium (one or more of the five standard strains: TA98, TA100, TA1535, TA1537, and TA1538), Assay Type: Histidine reverse gene mutation, Ames assay, Assay Code: SAL+*, Activation: With metabolic activation, Evaluation Type: Evaluation A (Pre-1980)
[6] = Species/Cell Type: Salmonella typhimurium (one or more of the five standard strains: TA98, TA100, TA1535, TA1537, and TA1538), Assay Type: Histidine reverse gene mutation, Ames assay, Assay Code: SALT, Evaluation Type: Evaluation A (Pre-1980)
[7] = Species/Cell Type: Syrian hamster embryo (SHE) cells, Assay Type: Cell transformation, clonal assay, Assay Code: CTC+, Evaluation Type: Evaluation A (Pre-1980)
[8] = Species/Cell Type: Drosophila melanogaster, Assay Type: Sex-linked recessive lethal gene mutation, Assay Code: SRL+, Evaluation Type: Evaluation A (Pre-1980)
[9] = Species/Cell Type: Mammalian polychromatic erythrocytes, Assay Type: Micronucleus test, chromosome aberrations, Assay Code: MNTT, Evaluation Type: Evaluation A (Pre-1980)
[10] = Species/Cell Type: Salmonella typhimurium (one or more of the five standard strains: TA98, TA100, TA1535, TA1537, and TA1538), Assay Type: Histidine reverse gene mutation, Ames assay, Assay Code: SAL+, Evaluation Type: Evaluation A (Pre-1980)

Structure (SMILES): Cc1cc(N=Nc2ccccc2C)ccc1N
- mutagenic call [1]: active; positive
- mutagenic call [2]: no conclusion
- mutagenic call (Species/Cell Type: Neurospora crassa, Assay Type: Forward gene mutation, Assay Code: NEF+, Evaluation Type: Evaluation A (Pre-1980)): active; positive
- call [3]: active; positive
- mutagenic call [4]: active; positive
- mutagenic call (Species/Cell Type: Nonhuman, Assay Type: Sister-chromatid exchange (SCE) in vitro, Assay Code: SC2T, Evaluation Type: Evaluation A (Pre-1980)): no conclusion
- mutagenic call (Species/Cell Type: Nonhuman, Assay Type: Sister-chromatid exchange (SCE) in vivo, Assay Code: SC3+, Evaluation Type: Evaluation B (Post-1980)): active; positive
- mutagenic call (Species/Cell Type: Saccharomyces cerevisiae, Assay Type: Mitotic recombination or gene conversion, Assay Code: YEH-, Evaluation Type: Evaluation A (Pre-1980)): inactive; negative
- mutagenic call [5]: active; positive
- mutagenic call [6]: no conclusion
- mutagenic call (Species/Cell Type: Salmonella typhimurium, Assay Type: Forward and reverse gene mutation, host-mediated assay, Assay Code: HMA-, Evaluation Type: Evaluation A (Pre-1980)): inactive; negative
- mutagenic call [7]: active; positive

Structure (SMILES): Cn1sccc1=O
- mutagenic call (Species/Cell Type: Mammalian polychromatic erythrocytes, Assay Type: Micronucleus test, chromosome aberrations, Assay Code: MNT-, Evaluation Type: Evaluation B (Post-1980)): inactive; negative

Structure (SMILES): Nc1nc(-c2ccccc2)cs1
- mutagenic call (Species/Cell Type: Bacillus subtilis (H17 vs M45), Assay Type: Rec-assay, spot test, DNA effects (bacterial DNA repair), Assay Code: REW-, Evaluation Type: Evaluation A (Pre-1980)): inactive; negative

Structure (SMILES): CNC(=O)C[C@@H](N)C(=O)N[C@@H](C(=O)N[C@@H]1C(=O)N2[C@@H]1SC(C)(C)[C@@H]2C(=O)O)c1ccc(O)cc1
- mutagenic call (Species/Cell Type: Mammalian polychromatic erythrocytes, Assay Type: Micronucleus test, chromosome aberrations, Assay Code: MNTT, Evaluation Type: Evaluation B (Post-1980)): no conclusion

Structure (SMILES): Clc1ccc2c(Cl)ccnc2c1
- mutagenic call [6]: no conclusion

Structure (SMILES): CCN(O)CC
- mutagenic call [8]: active; positive
- mutagenic call (Species/Cell Type: Human diploid fibroblasts, Assay Type: Unscheduled DNA synthesis (UDS) in vitro, DNA effects, Assay Code: UDH+, Evaluation Type: Evaluation A (Pre-1980)): active; positive
- mutagenic call [9]: no conclusion
- mutagenic call (Species/Cell Type: Rodents, Sex: Male, Assay Type: Dominant lethal test, Assay Code: DLTT, Evaluation Type: Evaluation A (Pre-1980)): no conclusion

Structure (SMILES): Cc1c2ccccc2cc2ccc3ccccc3c12
- mutagenic call [4]: active; positive
- mutagenic call [5]: active; positive

Structure (SMILES): Nc1nc(-c2ccc([N+](=O)[O-])[nH]2)cs1
- mutagenic call [6]: no conclusion

Structure (SMILES): CC(C)C(O)(C(=O)OCC1=CCN2CC[C@H](O)[C@H]12)[C@H](C)O (some centres undefined)
- mutagenic call [8]: active; positive

Structure (SMILES): O[C@H]1C=Cc2c(cc3ccc4cccc5ccc2c3c45)[C@@H]1O
- mutagenic call (Species/Cell Type: Chinese hamster lung (V79) cells, Assay Type: Forward gene mutation at the HPRT or ouabain locus, Assay Code: V79+*, Activation: With metabolic activation, Evaluation Type: Evaluation A (Pre-1980)): active; positive
- call [3]: active; positive
- call (Species/Cell Type: Nonhuman, Assay Code: CCG+L, Evaluation Type: Evaluation A (Pre-1980)): active; positive
- mutagenic call (Species/Cell Type: Nonhuman, Assay Type: Sister-chromatid exchange (SCE) in vitro, Assay Code: SC2+D, Dose Response: With dose response, Evaluation Type: Evaluation A (Pre-1980)): active; positive
- mutagenic call [4]: active; positive
- mutagenic call [5]: active; positive

Structure (SMILES): Cc1c2ccccc2cc2c3c(ccc12)C=CC(O)C3O (centres undefined)
- mutagenic call [5]: active; positive

Structure (SMILES): CC1C[C@@H]2CCC[C@H]2[C@@H]2CCC3CCCC[C@@H]3[C@@H]12 (some centres undefined)
- mutagenic call [7]: active; positive

Structure (SMILES): Oc1c2ccccc2c2ccc3cccc4ccc1c2c43
- mutagenic call (Species/Cell Type: Chinese hamster lung (V79) cells, Assay Type: Forward gene mutation at the HPRT or ouabain locus, Assay Code: V79+/-*, Activation: With metabolic activation, Evaluation Type: Evaluation A (Pre-1980)): inactive; positive without activation, negative with activation
- call (Species/Cell Type: Nonhuman, Assay Code: CCGT, Evaluation Type: Evaluation A (Pre-1980)): no conclusion
- mutagenic call [10]: active; positive

Structure (SMILES): Nc1ncnc2c1ncn2[C@@H]1O[C@H](CO[C@H]2[C@H](O)[C@@H](O)[C@@H](O[C@@H](C(=O)O)[C@H](O)[C@H](OP(=O)(O)O)[C@H](O)C(=O)O)O[C@@H]2CO)[C@@H](O)[C@H]1O
- mutagenic call (Species/Cell Type: Plant, Assay Type: Micronucleus test, chromosome aberrations, Assay Code: MNP+, Evaluation Type: Evaluation A (Pre-1980)): active; positive

Structure (SMILES): CCNCCNc1ccc(CO)c2sc3ccccc3c(=O)c12
- mutagenic call (Species/Cell Type: Fischer rat embryo (RLV/1706) cells, Assay Type: Cell transformation, viral enhanced, Assay Code: CTR+, Evaluation Type: Evaluation A (Pre-1980)): active; positive

Structure (SMILES): Cc1ccc(N=Nc2c(O)ccc3ccccc23)c(C)c1
- mutagenic call (Species/Cell Type: Bacillus subtilis (H17 vs M45T), Assay Type: Rec-assay, spot test, DNA effects (bacterial DNA repair), Assay Code: REXT, Evaluation Type: Evaluation A (Pre-1980)): no conclusion
- mutagenic call [5]: active; positive

Structure (SMILES): CN(N=O)C(=O)Nc1ccc(Cl)cc1
- mutagenic call [4]: active; positive

Structure (SMILES): COc1cccc2c1C(=O)c1c(O)c3c(c(O)c1C2=O)C[C@@](O)(C(C)=O)C[C@@H]3O[C@@H]1C[C@@H](N(C)C)[C@@H](O)[C@@H](C)O1
- mutagenic call [6]: no conclusion

Structure (SMILES): CC(C)NCCCNc1c2ccccc2nc2cccc([N+](=O)[O-])c12
- mutagenic call (Species/Cell Type: Human lymphocytes, Assay Type: Sister-chromatid exchange (SCE) in vitro, Assay Code: SCL+, Evaluation Type: Evaluation A (Pre-1980)): active; positive
- mutagenic call (Species/Cell Type: Human, Assay Type: Sister-chromatid exchange (SCE) in vitro, Assay Code: SC1+, Evaluation Type: Evaluation A (Pre-1980)): active; positive

Structure (SMILES): CCN(CCCl)CCCNc1c2ccccc2nc2c1ccc1cccnc12
- mutagenic call (Species/Cell Type: Chinese hamster ovary (CHO) cells, Assay Type: Forward gene mutation at the HPRT locus, Assay Code: CHO+, Evaluation Type: Evaluation B (Post-1980)): active; positive

Structure (SMILES): CN(C)P(=O)(N(C)C)N1CC1
- mutagenic call [8]: active; positive
- mutagenic call (Species/Cell Type: Human lymphocytes, Assay Type: Sister-chromatid exchange (SCE) in vitro, Assay Code: SCL+D, Dose Response: With dose response, Evaluation Type: Evaluation B (Post-1980)): active; positive
- mutagenic call (Species/Cell Type: Human, Assay Type: Sister-chromatid exchange (SCE) in vitro, Assay Code: SC1+D, Dose Response: With dose response, Evaluation Type: Evaluation B (Post-1980)): active; positive
- mutagenic call (Species/Cell Type: Nonhuman, Assay Type: Chromosome aberrations in vitro, Assay Code: CY&+, Evaluation Type: Evaluation A (Pre-1980)): active; positive

Structure (SMILES): CC(=O)[O-].CC(=O)[O-].[Hg+2]
- mutagenic call (Species/Cell Type: Mammalian oocytes or early embryo, Assay Type: Chromosome aberrations in vivo, Assay Code: CYO-, Evaluation Type: Evaluation A (Pre-1980)): inactive; negative
- mutagenic call (Species/Cell Type: Nonhuman, Assay Type: Sister-chromatid exchange (SCE) in vitro, Assay Code: SC2-, Evaluation Type: Evaluation B (Post-1980)): inactive; negative

Structure (SMILES): O=NN1CN2CN(C1)CN(N=O)C2
- mutagenic call [9]: no conclusion
- mutagenic call (Species/Cell Type: Mouse embryo (AKR/ME) cells, Assay Type: Cell transformation, Assay Code: CTK-, Evaluation Type: Evaluation A (Pre-1980)): inactive; negative
- mutagenic call [4]: active; positive

Structure (SMILES): CCOP(=O)(OCC)Oc1cc(C)nc(C(C)C)n1
- mutagenic call [4]: active; positive

Structure (SMILES): CCN(CC)Cc1cc(Br)ccc1OCC(=O)N/N=C/c1ccccc1O
- mutagenic call (Species/Cell Type: Saccharomyces cerevisiae, Assay Type: Reverse gene mutation, Assay Code: YERT, Evaluation Type: Evaluation A (Pre-1980)): no conclusion

Structure (SMILES): Oc1c(Cl)cc(Cl)c2cccnc12
- mutagenic call [6]: no conclusion

Structure (SMILES): CN(CC(=O)OC[C@H](N)C(=O)O)N=O
- mutagenic call [1]: active; positive
- mutagenic call [2]: no conclusion

Structure (SMILES): C=C(Cl)CCl
- mutagenic call [10]: active; positive

Structure (SMILES): Nc1ncnc2c1ncn2[C@@H]1O[C@H](CO)C[C@H]1O
- mutagenic call (Species/Cell Type: Fischer rat embryo (RLV/1706) cells, Assay Type: Cell transformation, viral enhanced, Assay Code: CTR-, Evaluation Type: Evaluation A (Pre-1980)): inactive; negative
- mutagenic call (Species/Cell Type: Nonhuman, Assay Type: Sister-chromatid exchange (SCE) in vitro, Assay Code: SC2T, Evaluation Type: Evaluation B (Post-1980)): no conclusion

Structure (SMILES): CC(C)C(O)(C(=O)OCC1=CC[N@+]2([O-])CCCC12)[C@H](C)O (some centres undefined)
- mutagenic call (Species/Cell Type: Drosophila melanogaster, Assay Type: Sex-linked recessive lethal gene mutation, Assay Code: SRLT, Evaluation Type: Evaluation A (Pre-1980)): no conclusion

Structure (SMILES): O=C1CN=C(c2ccccc2)c2cc([N+](=O)[O-])ccc2N1
- mutagenic call (Species/Cell Type: Aspergillus nidulans, Assay Type: Forward gene mutation, Assay Code: ASF+, Evaluation Type: Evaluation A (Pre-1980)): active; positive

Structure (SMILES): c1ccc2c(c1)ccc1c3ccccc3c(C3CO3)cc21 (centres undefined)
- mutagenic call [10]: active; positive
